Among the test systems are BT-549; KM-20L2; DMS-273; DLD-1; DMS-114; M19-MEL; LXFL 529.
Assay in all cases: NCI-60 cell line screen, 48 h

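Following 48 hours of exposure in 96-well plates, responses at five concentrations were used to interpolate endpoints linearly. GI50 is the concentration that inhibits growth by half.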 The source made the active and inactive calls. Rule as the data show it: active = GI50 up to about 1.1 µM and inactive = higher.

Take `CC(C)(C)c1ccc(CN2CCN(C(c3ccccc3)c3ccc(Cl)cc3)CC2)cc1` (configuration not stated): the GI50 in the assay on BT-549 was > 100 µM (inactive). For the compound `Nc1nc(N)c2nc(CNc3ccc(C(=O)O)cc3)[nH]c2n1`, in the assay with BT-549, the GI50 is > 100 µM (inactive).

`NCc1nnn(Cc2ccccc2)c1N`: the GI50 in the assay on BT-549 is > 100 µM (inactive). Still for that read-out and setting: with `N=c1oc2cc(O)ccc2cc1C(=O)Nc1ccccn1` the figure was 73.6 µM (inactive); with `c1ccc2c[n+](CCCC[n+]3ccc4ccccc4c3)ccc2c1`, > 100 µM (inactive); with `COc1cc(C2C3=C(COC3=O)OC(C)(C)Oc3cc4c(cc32)OCO4)cc(OC)c1OC` (configuration not stated), 6.67 µM (inactive). For `N#Cc1c2c(c(Cl)n3c1nc1ccccc13)CCCC2`, the GI50 in the assay on KM-20L2 was 2.49 µM (inactive); with DMS-273 it was 1.09 µM (active); in the assay on DLD-1, 10.6 µM (inactive); in the assay on DMS-114, 1.86 µM (inactive); in the assay with M19-MEL, 3.61 µM (inactive). As to `C=CCN(CC=C)CC(C(C)=O)C(c1ccccc1)c1c(O)c2ccccc2oc1=O` (configuration not stated), the GI50 in the assay with KM-20L2 was 82.8 µM (inactive); in the assay on DMS-273, > 100 µM (inactive); with LXFL 529 it was > 100 µM (inactive); in the assay on DLD-1, > 100 µM (inactive); in the assay with DMS-114, > 100 µM (inactive); with M19-MEL, > 100 µM (inactive). For the compound `Nn1c(=O)n(Cc2ccccc2)n(-c2ccccc2)c1=O`, the GI50 in the assay on DMS-273, in the assay on LXFL 529 and with DLD-1 was > 100 µM (inactive) each time.

Consider `CC1=CC=CC(C)(C)CC1(O[Si](C)(C)C)C(F)(F)F` (configuration not stated), for which the GI50 in the assay on BT-549 was > 100 µM (inactive). Same read-out and setting: with `CCN1C/C(=C\c2ccc(Cl)cc2)c2[nH]c(=O)c(C#N)c(-c3ccc(Cl)cc3)c2C1` the figure was > 100 µM (inactive). Same read-out and setting: with `O=C(NNCc1ccco1)c1cc2ccccc2[nH]1` the figure was > 52.2 µM (inactive). Consider `O=C1CC(C(=O)N2CCCCC2)n2c(=O)n(-c3ccccc3)c(=O)n2C1` (configuration not stated), for which, in the assay with BT-549, the GI50 is > 100 µM (inactive). For the compound `CC(=O)c1ccc(NC(=O)/C(CC(=O)c2sc(-c3cccnc3)nc2C)=N/NC(N)=O)cc1`, the GI50 in the assay with KM-20L2 was > 100 µM (inactive); in the assay with LXFL 529, 41.4 µM (inactive); with DMS-114 it was > 100 µM (inactive); in the assay on M19-MEL, > 100 µM (inactive). On to `CCOc1ccccc1NC(=O)C1=C(C)NC(C)=C(C(=O)Nc2ccccc2OCC)C1c1ccc2c(c1)OCO2`, for which the GI50 in the assay with KM-20L2 was 26.4 µM (inactive); with LXFL 529, 17.9 µM (inactive); in the assay on DLD-1, 22.2 µM (inactive); in the assay on DMS-114 it was 16.9 µM (inactive); in the assay with M19-MEL, 30.1 µM (inactive).

`COC(=O)N1C=CC2=C(C)C3Nc4ccccc4C3C(C)=C2C1` (configuration not stated): the GI50 is 0.697 µM (active) in the assay with KM-20L2; 0.301 µM (active) with DMS-273; 0.953 µM (active) in the assay with LXFL 529; 1.74 µM (inactive) in the assay with DLD-1; 23 µM (inactive) in the assay on DMS-114; 2.78 µM (inactive) with M19-MEL. Consider `CN(C)CCNC(=O)c1ccc(Cl)c2c(Nc3ccc(S(=O)(=O)N=C(N)N)cc3)c3ccccc3nc12`, for which the GI50 in the assay on KM-20L2 is 5.53 µM (inactive); with DMS-273, 1.79 µM (inactive); in the assay on LXFL 529, 3.94 µM (inactive); with DLD-1, 5.62 µM (inactive); with DMS-114, 0.993 µM (active); in the assay with M19-MEL, 3.86 µM (inactive). `O=c1ccn(C2OC(CO)C(P(=O)(O)O)C2O)c(=O)[nH]1` (configuration not stated): the GI50 in the assay on BT-549 was > 100 µM (inactive). For the compound `NC(=S)N/N=C1\NC(=O)/C(=C/c2ccc3c(c2)OCO3)S1`, the GI50 in the assay with BT-549 was 25.1 µM (inactive). The same measure, in the same setting: with `COc1ccc2c(CCNS(=O)(=O)c3ccccc3)c(C(C)=O)[nH]c2c1` the figure was 33.8 µM (inactive). On the same count and under the same terms, for `CC(=O)CC1(CBr)Nc2ccc([N+](=O)[O-])cc2NC1=O` (configuration not stated) the value was 58.1 µM (inactive); for `CC(=O)Oc1cc(Cl)c(C)c2c1[C@H]1CC[C@]3(C)[C@@H](OC(C)=O)CC[C@H]3[C@@H]1CC2`, > 100 µM (inactive). With `CC(C)N(C(C)C)S(=O)(=O)CC12CCC(C/C1=N\O)C2` (configuration not stated), the GI50 in the assay on BT-549 is > 100 µM (inactive). As for `O=C(/C=C/c1ccccc1)CCC1C(=O)NC(=S)NC1=O`, the GI50 with BT-549 is > 100 µM (inactive). For `O=C1c2[nH]c3ccccc3c2CCN2CCCCC12` (configuration not stated), the GI50 in the assay with BT-549 was 27.6 µM (inactive). On to `COc1ccc2c(c1)C(N)=C(c1ccccc1)C2=O`, for which the GI50 in the assay with BT-549 is > 100 µM (inactive). For the compound `O=C1OC(c2ccccc2)=N/C1=C\c1ccc(F)cc1`, in the assay on BT-549, the GI50 is 75.3 µM (inactive). Same read-out and setting: for `CCOC(=O)c1c(Br)c(-c2ccc([N+](=O)[O-])cc2)c(Br)n1C` the value was > 10 µM (inactive).

`CCCCCCCCCCCCCCCCNc1ccc2c(c1)OCCOCCOCCOCCO2`: the GI50 with BT-549 was 3.44 µM (inactive). The same measure, in the same setting: for `Cc1c(C)c2c(c(N)c1C#N)C(=O)N(Cc1ccc(S(N)(=O)=O)cc1)C2=O` the value was 19.4 µM (inactive); for `N#CI1OC(C(F)(F)F)(C(F)(F)F)c2ccccc21`, 19.6 µM (inactive).

Regarding `CC1=CP(=O)(OC(C)C)CC(C)=C1Cl` (configuration not stated), the GI50 in the assay on KM-20L2 is > 100 µM (inactive); in the assay with DMS-273, 98.4 µM (inactive); in the assay on LXFL 529 it was > 100 µM (inactive); in the assay on DLD-1, > 100 µM (inactive); with DMS-114, > 100 µM (inactive); with M19-MEL, > 100 µM (inactive). On to `CC(C)OP(=O)(OC(C)C)/C(C#N)=C/c1ccco1`, for which the GI50 in the assay on BT-549 was > 100 µM (inactive). On the same count and under the same terms, for `O=[N+]([O-])c1ccc(Cl)c(/C=N/C23CC4CC(CC(C4)C2)C3)c1` the value was > 10 µM (inactive); for `COc1ccc(/C=C2\C[C@H]3[C@@H]4CC=C5C[C@@H](OC(C)=O)CC[C@]5(C)[C@H]4CC[C@]3(C)C2=O)cc1OC`, 63.1 µM (inactive). The same measure, in the same setting: for `COc1ccc2nc3ccc(OC)cc3c(SCCCl)c2c1` the value was 51.4 µM (inactive); for `N#CC1C=Cc2ccccc2N1C(=O)Oc1ccccc1` (configuration not stated), 53.5 µM (inactive); for `O=C(Nn1c(-c2ccccc2)nc2ccccc2c1=O)c1ccc(O)cc1`, > 100 µM (inactive). On the same count and under the same terms, with `N#CCC(=O)Nn1c(CC#N)nnc1Cc1ccccc1` the figure was > 100 µM (inactive); with `Nc1nc(N)c2c(n1)NC(c1ccccc1)CC(/C=C/c1ccc(Cl)cc1)=N2` (configuration not stated), 17.5 µM (inactive). For the compound `COc1cc(C(=O)OC2CC34CCNC35CC(OC5(OC)C2O)c2cc3c(cc24)OCO3)ccc1O` (configuration not stated), the GI50 in the assay with BT-549 was > 100 µM (inactive).

`CN1CCc2c(sc3nc(Nc4ccccc4)n(N)c(=O)c23)C1`: the GI50 in the assay on BT-549 was > 100 µM (inactive). Take `Nc1ccc(C(=O)NN2C(=O)C(Cl)C2c2ccc(O)cc2)cc1` (configuration not stated): the GI50 with KM-20L2 was 19.9 µM (inactive); with DMS-273, 17.2 µM (inactive); in the assay with LXFL 529, 17.8 µM (inactive); in the assay with DLD-1, 18.1 µM (inactive); with DMS-114, 13 µM (inactive); in the assay with M19-MEL, 20.1 µM (inactive). With `CCOC(=O)C1C[C@H]2CO[C@H](c3ccccc3)N2C1=O` (some centres not stated), in the assay with BT-549, the GI50 was > 100 µM (inactive).

As to `CCOC(=O)/C=C\C(C#N)(C#N)/N=C/c1ccsc1`, in the assay with BT-549, the GI50 was 5.42 µM (inactive). On to `O=C1/C(=C/c2ccc([N+](=O)[O-])cc2)CCCc2ccccc21`, for which the GI50 with BT-549 was > 100 µM (inactive). On the same count and under the same terms, with `COc1cc2c[n+](C)c3c(c2cc1OC)Cc1cc2c(cc1-3)OCO2` the figure was 90.2 µM (inactive); with `COC1=CC(=O)c2c(c(-c3nc(C)cs3)cn2C)C1=O`, 3.97 µM (inactive); with `CC[C@H]1C=CCC[C@@]2(C[C@@H]3CC[C@@H]4[C@H](C(=O)OCCCCCCCCCCCCCCCC(=O)O)[C@]5(CCC[C@@H](C)O5)NC(=[N+]34)N2)O1` [CRAMBESCIDIN 657], 0.314 µM (active).

Values taken from ChEMBL document CHEMBL1201862, “PubChem BioAssay data set” (2004).
